Active and inactive are the calls of the source.
How the values were obtained:
Coagulation factor XII = target: T1, Coagulation factor XII (Homo sapiens, UniProt P00748); assay type: functional;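 further: activated factor XIIa alpha cleaving a fluorogenic AMC peptide substrate; inhibitor potency from loss of enzyme activity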
T1 sequence (P00748 whole entry): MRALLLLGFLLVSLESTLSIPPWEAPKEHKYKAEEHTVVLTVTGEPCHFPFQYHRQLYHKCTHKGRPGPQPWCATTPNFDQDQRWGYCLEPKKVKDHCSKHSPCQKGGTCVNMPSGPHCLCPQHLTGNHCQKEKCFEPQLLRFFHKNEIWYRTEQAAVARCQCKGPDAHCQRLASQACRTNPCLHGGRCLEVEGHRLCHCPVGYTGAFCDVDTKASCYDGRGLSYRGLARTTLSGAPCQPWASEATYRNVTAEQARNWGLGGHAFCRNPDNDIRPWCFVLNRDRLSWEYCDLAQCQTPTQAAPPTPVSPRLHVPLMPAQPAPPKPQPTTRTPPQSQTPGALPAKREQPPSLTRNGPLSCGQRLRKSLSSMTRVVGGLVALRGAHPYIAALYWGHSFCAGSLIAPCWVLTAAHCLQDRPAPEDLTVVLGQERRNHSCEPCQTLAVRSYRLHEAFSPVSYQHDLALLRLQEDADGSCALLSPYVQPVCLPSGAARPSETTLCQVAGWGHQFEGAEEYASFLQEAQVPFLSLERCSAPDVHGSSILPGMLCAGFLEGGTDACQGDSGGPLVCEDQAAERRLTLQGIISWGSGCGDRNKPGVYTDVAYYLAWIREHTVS

[1] = target: T2, Calpain-2 catalytic subunit (Sus scrofa, UniProt P43367); assay: m-calpain protease blockers, concentration series – biochemical, fluorogenic peptide substrate, dose response (AID 1420); assay type: functional
T2 sequence (P43367 whole entry): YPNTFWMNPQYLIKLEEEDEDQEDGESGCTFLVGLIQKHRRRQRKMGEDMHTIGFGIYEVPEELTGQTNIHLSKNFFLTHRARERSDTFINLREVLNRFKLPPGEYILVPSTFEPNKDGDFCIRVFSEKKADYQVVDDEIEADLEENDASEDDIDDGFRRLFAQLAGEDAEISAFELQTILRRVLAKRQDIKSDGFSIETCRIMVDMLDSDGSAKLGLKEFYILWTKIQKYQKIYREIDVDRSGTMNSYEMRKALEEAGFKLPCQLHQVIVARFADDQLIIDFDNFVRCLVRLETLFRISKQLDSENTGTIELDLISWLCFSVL

[2] = target: T3, Heat shock factor protein 1 (Mus musculus, UniProt P38532); assay: decrease of HSF1-responsive luciferase luminescence – cell-based, NIH3T3, dose retest, confirmation (AID 2382); assay type: functional;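 further: NIH3T3 fibroblasts with HSF1-driven luciferase reporter stressed by proteasome inhibitor MG132; luminescence from HSF1-driven luciferase expression after 8 hours of MG132 stress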
T3 sequence (P38532 whole entry): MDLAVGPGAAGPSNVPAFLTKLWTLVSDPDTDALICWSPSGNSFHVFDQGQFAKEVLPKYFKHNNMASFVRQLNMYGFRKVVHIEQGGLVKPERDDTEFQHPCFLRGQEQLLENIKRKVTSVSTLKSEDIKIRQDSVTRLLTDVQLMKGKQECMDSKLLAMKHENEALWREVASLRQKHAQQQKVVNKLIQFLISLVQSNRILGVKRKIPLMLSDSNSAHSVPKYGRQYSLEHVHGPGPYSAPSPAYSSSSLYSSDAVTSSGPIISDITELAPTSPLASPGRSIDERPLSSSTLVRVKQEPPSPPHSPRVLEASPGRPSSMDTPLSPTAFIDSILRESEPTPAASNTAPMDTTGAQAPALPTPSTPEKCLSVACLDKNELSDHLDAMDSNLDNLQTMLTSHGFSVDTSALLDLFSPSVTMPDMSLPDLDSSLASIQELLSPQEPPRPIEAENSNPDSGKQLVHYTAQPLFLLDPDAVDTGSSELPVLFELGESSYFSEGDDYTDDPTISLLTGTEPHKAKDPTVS

Troponin, cardiac muscle = Troponin, cardiac muscle (Homo sapiens, UniProt P19429+P45379+P63316); assay: Fluorescence-based biochemical high throughput dose response assay for activators of the calcium sensitivity of cardiac Regulated Thin Filaments (RTF). [Related pubchem assays (depositor defined):AID493008, AID493018, AID504382, AID504383]; assay type: protein-complex assay
H9c2 = assay: cells; assay type: functional, cell-based; conditions: Rattus norvegicus, H9c2, Myocardium;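 further: confirmatory concentration-response retest of ultra-high-throughput screening hits for modulation of myocardial damage; cell death induced by hydrogen peroxide oxidative stress; compound pretreatment for 60 min then peroxide exposure for 2 h; potency is for protecting the cells against peroxide damage rather than for killing them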

SMILES	IC50 (Coagulation factor XII)	IC50 [1]	EC50 [2]	EC50 (Troponin, cardiac muscle)	IC50 (H9c2)
O=C(c1ccc(N2CCCC2=O)cc1)N1CCCCCC1	> 50 µM (inactive)	6.62 µM (not active)			
COc1ccc(CNC(=O)c2sc(=S)n(-c3ccccc3)c2N)cc1			> 195 µM (not active)	> 71.5 µM (inactive)	
Cc1ccc(C(=O)Nc2ccc3c(c2)ncn3C)cc1				> 71.4 µM (inactive)	
S=C(Nc1ccc(N2CCOCC2)cc1)Nc1ccc2nc(-c3ccco3)c(-c3ccco3)nc2c1				2.92 µM (active)	> 79 µM (inactive)

From ChEMBL document CHEMBL1201862, “PubChem BioAssay data set” (2004)
